These results are taken from US20140323534A1, “USES OF 3'-DESFERRITHIOCIN ANALOGS” (University of Florida Research Foundation, Inc., priority 2011, published 2014).

Where two headings read alike, the source gives them in different places.

A short description of one data set: LogPapp of DFT analogs. Type of data set: physicochemical.
The nature of data set [1]: Concentration of DFT analogs in rat plasma and cerebrospinal fluid after oral (PO) and subcutaneous (SC) doses. In kind it is in vivo, Sprague-Dawley rats. The conditions noted are these: rats, monosodium salt; for concentration at 0.5 h / concentration at 1 h / concentration at 2 h / concentration at 4 h / concentration at 8 h: male, Sprague-Dawley, rat; for concentration at 8 h / Concentration in plasma: 8 h. On the procedure:
The DFT analogs useful in the inventive methods were converted from the free acid form to the monosodium salt form. Water followed by one equivalent of sodium hydroxide was added to the DFT analog as a free acid. The resulting slurry was vortexed or sonicated until the DFT analog went into solution. More water was added, and the solution was vortexed or sonicated again. The formed yellow solution, having a pH about 7, was used as a sample solution in the following examples. It is preferred that a fresh sample solution of the DFT analog is made shortly before the solution is used in an assay.
Adult male Sprague-Dawley rats (450-500 g) were used. The rats were not fasted. A sample solution of a monosodium salt of (S)-3′-(HO)-DADFT-norPE (II-A) or (S)-3′-(HO)-DADFT-PE (III-A) was administered to the rats at an oral or subcutaneous dose of 300 μmol/kg. Concentrations of the DFT analogs in the plasma and cerebrospinal fluid of the rats were measured at 0.5 hour, 1 hour, 2 hours, 4 hours, and 8 hours post administration.

In data set [2] the test system is acetic acid-induced colitis in rats. The data set can be described thus: Prevention of acetic acid-induced colitis in a rat model. In kind it is in vivo, Sprague-Dawley rats. The conditions noted are these: FIG. 1: 20 mg/kg IV 30 minutes before the 4% acetic acid.
Where [3] appears, read: cerebrospinal fluid, 300 μmol/kg SC, read-out: Concentration in cerebrospinal fluid.
The mark [4] stands for this setting: plasma, 300 μmol/kg SC, read-out: Concentration in plasma.
The mark [5] stands for this setting: cerebrospinal fluid, 300 μmol/kg PO, read-out: Concentration in cerebrospinal fluid.
[6] abbreviates: plasma, 300 μmol/kg PO, read-out: Concentration in plasma.

In the case of `COCCOCCOc1cccc(C2=N[C@@](C)(C(=O)O)CS2)c1O` [II-A], in the data set “LogPapp of DFT analogs”, the LogPapp was −0.93. The concentration at 0.5 h in data set [1] (cerebrospinal fluid, 300 μmol/kg SC, 0.5 h, read-out: Concentration in cerebrospinal fluid) was determined as 0 µM. In data set [1] (setting [3]), the concentration at 1 h came out at 0 µM, the concentration at 2 h amounted to 0 µM and the concentration at 4 h was 0 µM. Also, in data set [1] (cerebrospinal fluid, 300 μmol/kg SC), the concentration at 8 h came out at 0 nM. Also, the concentration at 0.5 h in data set [1] (plasma, 300 μmol/kg SC, 0.5 h, read-out: Concentration in plasma) stood at 77 ± 10 µM. Besides, in data set [1] (setting [4]), the concentration at 1 h worked out at 66 ± 5 µM, the concentration at 2 h came to 44 ± 2 µM and the concentration at 4 h came to 7 ± 1 µM. Further, the Concentration in plasma result in data set [1] (300 μmol/kg SC) is listed as “trace”.

As to `COCCOCCOCCOc1cccc(C2=N[C@@](C)(C(=O)O)CS2)c1O` [III-A], the LogPapp in the data set “LogPapp of DFT analogs” was −1.22. Moreover, in data set [1] (setting [5]), the concentration at 1 h came to 0 µM, the concentration at 2 h was 0 µM and the concentration at 4 h turned out to be 0 µM. Further, the concentration at 8 h in data set [1] (cerebrospinal fluid, 300 μmol/kg PO) worked out at 0 nM. Further, in data set [1] (plasma, 300 μmol/kg PO, 0.5 h, read-out: Concentration in plasma), the concentration at 0.5 h is 62 ± 24 µM. For the same molecule, in data set [1] (setting [6]), the concentration at 1 h was determined as 46 ± 3 µM, the concentration at 2 h amounted to 24 ± 5 µM and the concentration at 4 h was determined as 13 ± 2 µM. Moreover, the “Concentration in cerebrospinal fluid” value in data set [1] (300 μmol/kg PO, 0.5 h) is recorded as “trace”. In data set [1] (300 μmol/kg PO), the Concentration in plasma result is given as “trace”.

In the case of `CC(=O)N(O)CCCCCNC(=O)CCC(=O)N(O)CCCCCNC(=O)CCC(=O)N(O)CCCCCN` [DFO, desferrioxamine], the “Effect on acetic acid-induced colitis” value in data set [2] is “prevent acetic acid-induced colitis”.
